Measurements from PubChem BioAssay (NCI).
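Interpolation was linear, between the two tested concentrations surrounding the appropriate level; five concentrations were tested over 48 hours in 96-well plates. Definition used: TGI = concentration required for complete inhibition of growth.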

Key:
Experiment in all cases: NCI anticancer screen, dose series, 48 h
CAKI-1 renal = tested on: CAKI-1 renal
OVCAR-5 ovarian = tested on: OVCAR-5 ovarian
A498 renal = tested on: A498 renal
SK-MEL-28 melanoma = tested on: SK-MEL-28 melanoma
SF-268 CNS = tested on: SF-268 CNS
SK-OV-3 ovarian = tested on: SK-OV-3 ovarian
RPMI-8226 leukemia = tested on: RPMI-8226 leukemia
DU-145 prostate = tested on: DU-145 prostate
HCC-2998 colon = tested on: HCC-2998 colon
RXF 393 renal = tested on: RXF 393 renal
A549 NSCLC = tested on: A549 NSCLC
CCRF-CEM leukemia = tested on: CCRF-CEM leukemia
NCI-H23 lung = tested on: NCI-H23 lung
HCT-15 colon = tested on: HCT-15 colon
OVCAR-4 ovarian = tested on: OVCAR-4 ovarian
ACHN renal = tested on: ACHN renal
HT29 colon = tested on: HT29 colon
M14 melanoma = tested on: M14 melanoma
UACC-257 melanoma = tested on: UACC-257 melanoma
MALME-3M melanoma = tested on: MALME-3M melanoma
SK-MEL-5 melanoma = tested on: SK-MEL-5 melanoma
SW-620 colon = tested on: SW-620 colon
U251 CNS = tested on: U251 CNS
786-0 renal = tested on: 786-0 renal
UACC-62 melanoma = tested on: UACC-62 melanoma
LOX IMVI melanoma = tested on: LOX IMVI melanoma
SN12C renal = tested on: SN12C renal
UO-31 renal = tested on: UO-31 renal
MDA-N = tested on: MDA-N
SR leukemia = tested on: SR leukemia
NCI-H522 lung = tested on: NCI-H522 lung
NCI/ADR-RES ovarian = tested on: NCI/ADR-RES ovarian
PC-3 prostate = tested on: PC-3 prostate
MDA-MB-435 = tested on: MDA-MB-435
MCF7 breast = tested on: MCF7 breast
OVCAR-3 ovarian = tested on: OVCAR-3 ovarian
HOP-92 NSCLC = tested on: HOP-92 NSCLC
KM12 colon = tested on: KM12 colon
NCI-H226 lung = tested on: NCI-H226 lung
SK-MEL-2 melanoma = tested on: SK-MEL-2 melanoma
T-47D breast = tested on: T-47D breast
SF-539 CNS = tested on: SF-539 CNS
TK-10 renal = tested on: TK-10 renal
COLO 205 colon = tested on: COLO 205 colon
BT-549 breast = tested on: BT-549 breast
SF-295 CNS = tested on: SF-295 CNS
OVCAR-8 ovarian = tested on: OVCAR-8 ovarian
HCT-116 colon = tested on: HCT-116 colon
HOP-62 NSCLC = tested on: HOP-62 NSCLC
IGROV1 ovarian = tested on: IGROV1 ovarian
MOLT-4 leukemia = tested on: MOLT-4 leukemia
MDA-MB-231 breast = tested on: MDA-MB-231 breast
SNB-19 CNS = tested on: SNB-19 CNS
K-562 leukemia = tested on: K-562 leukemia
EKVX NSCLC = tested on: EKVX NSCLC
HL-60(TB) leukemia = tested on: HL-60(TB) leukemia
NCI-H460 lung = tested on: NCI-H460 lung

CC1(C)C[C@H]2[C@H](O)C(CO)=C3C(=O)[C@@H](O)[C@]3(C)[C@H]2C1
TGI (CAKI-1 renal): > 100 µM | TGI (OVCAR-5 ovarian): > 100 µM | TGI (A498 renal): > 100 µM | TGI (SK-MEL-28 melanoma): > 100 µM | TGI (SF-268 CNS): > 100 µM | TGI (SK-OV-3 ovarian): > 100 µM | TGI (RPMI-8226 leukemia): > 100 µM | TGI (DU-145 prostate): > 100 µM | TGI (HCC-2998 colon): > 100 µM | TGI (RXF 393 renal): > 100 µM | TGI (A549 NSCLC): > 100 µM | TGI (CCRF-CEM leukemia): 84 µM | TGI (NCI-H23 lung): > 100 µM | TGI (HCT-15 colon): > 100 µM | TGI (OVCAR-4 ovarian): > 100 µM | TGI (ACHN renal): > 100 µM | TGI (HT29 colon): > 100 µM | TGI (M14 melanoma): > 100 µM | TGI (UACC-257 melanoma): > 100 µM | TGI (MALME-3M melanoma): > 100 µM | TGI (SK-MEL-5 melanoma): > 100 µM | TGI (SW-620 colon): > 100 µM | TGI (U251 CNS): > 100 µM | TGI (786-0 renal): > 100 µM | TGI (UACC-62 melanoma): > 100 µM | TGI (LOX IMVI melanoma): > 100 µM | TGI (SN12C renal): > 100 µM | TGI (UO-31 renal): > 100 µM | TGI (MDA-N): > 100 µM | TGI (SR leukemia): > 100 µM | TGI (NCI-H522 lung): > 100 µM | TGI (NCI/ADR-RES ovarian): > 100 µM | TGI (PC-3 prostate): > 100 µM | TGI (MDA-MB-435): > 100 µM | TGI (MCF7 breast): > 100 µM | TGI (OVCAR-3 ovarian): > 100 µM | TGI (HOP-92 NSCLC): > 100 µM | TGI (KM12 colon): > 100 µM | TGI (NCI-H226 lung): > 100 µM | TGI (SK-MEL-2 melanoma): > 100 µM | TGI (T-47D breast): > 100 µM | TGI (SF-539 CNS): > 100 µM | TGI (TK-10 renal): > 100 µM | TGI (COLO 205 colon): > 100 µM | TGI (BT-549 breast): > 100 µM | TGI (SF-295 CNS): > 100 µM | TGI (OVCAR-8 ovarian): > 100 µM | TGI (HCT-116 colon): > 100 µM | TGI (HOP-62 NSCLC): > 100 µM | TGI (IGROV1 ovarian): > 100 µM | TGI (MOLT-4 leukemia): 53.3 µM | TGI (MDA-MB-231 breast): > 100 µM | TGI (SNB-19 CNS): > 100 µM | TGI (K-562 leukemia): > 100 µM | TGI (EKVX NSCLC): > 100 µM

CC(=O)/C=C/CCC(=O)/C=C/C(=O)OC(CCC(=O)/C=C/C(=O)O)CC(C)=O (stereo unspecified)
TGI (OVCAR-5 ovarian): > 100 µM | TGI (HL-60(TB) leukemia): > 100 µM | TGI (SK-MEL-28 melanoma): > 100 µM | TGI (SF-268 CNS): > 100 µM | TGI (RPMI-8226 leukemia): > 100 µM | TGI (DU-145 prostate): > 100 µM | TGI (HCC-2998 colon): > 100 µM | TGI (RXF 393 renal): > 100 µM | TGI (A549 NSCLC): > 100 µM | TGI (CCRF-CEM leukemia): > 100 µM | TGI (NCI-H23 lung): > 100 µM | TGI (HCT-15 colon): > 100 µM | TGI (OVCAR-4 ovarian): > 100 µM | TGI (ACHN renal): > 100 µM | TGI (NCI-H460 lung): > 100 µM | TGI (HT29 colon): > 100 µM | TGI (M14 melanoma): > 100 µM | TGI (UACC-257 melanoma): > 100 µM | TGI (MALME-3M melanoma): > 100 µM | TGI (SK-MEL-5 melanoma): > 100 µM | TGI (SW-620 colon): > 100 µM | TGI (U251 CNS): > 100 µM | TGI (786-0 renal): > 100 µM | TGI (UACC-62 melanoma): > 100 µM | TGI (SN12C renal): > 100 µM | TGI (MDA-N): > 100 µM | TGI (SR leukemia): > 100 µM | TGI (NCI-H522 lung): > 100 µM | TGI (NCI/ADR-RES ovarian): > 100 µM | TGI (PC-3 prostate): > 100 µM | TGI (MDA-MB-435): > 100 µM | TGI (MCF7 breast): > 100 µM | TGI (OVCAR-3 ovarian): > 100 µM | TGI (HOP-92 NSCLC): > 100 µM | TGI (KM12 colon): > 100 µM | TGI (NCI-H226 lung): > 100 µM | TGI (T-47D breast): > 100 µM | TGI (SF-539 CNS): > 100 µM | TGI (TK-10 renal): > 100 µM | TGI (COLO 205 colon): > 100 µM | TGI (BT-549 breast): > 100 µM | TGI (SF-295 CNS): > 100 µM | TGI (OVCAR-8 ovarian): > 100 µM | TGI (HCT-116 colon): > 100 µM | TGI (HOP-62 NSCLC): > 100 µM | TGI (IGROV1 ovarian): > 100 µM | TGI (MOLT-4 leukemia): > 100 µM | TGI (MDA-MB-231 breast): > 100 µM | TGI (SNB-19 CNS): > 100 µM | TGI (K-562 leukemia): > 100 µM | TGI (EKVX NSCLC): > 100 µM
